In PubChem BioAssay AID2305 (GlaxoSmithKline (GSK), 2010):

What follows are compounds tested on P. falciparum 3D7 growth, pLDH absorbance (assay: P. falciparum 3D7 growth inhibition, dose response, strain 3D7 (AID 2305)).
O=C(CN1CCCCC1)Nc1ccc(Nc2nccc(NCC(O)c3ccccc3)n2)cc1 (centres undefined) was tested, and the IC50 was 580 nM. With CN(C)CCn1c(=N)n(CC(O)c2ccc(Cl)c(Cl)c2)c2ccccc21 (centres undefined) the IC50 was 800 nM. In the case of CCOC(=O)Nc1cc(-c2csc(N=C(N)N)n2)cc([N+](=O)[O-])c1, the IC50 is reported as 820 nM. In the case of Cn1c(NC(=O)C2CCC(CNC(=O)c3ccc(O)c(-c4cccc([N+](=O)[O-])c4)c3)CC2)nc2ccccc21 (centres undefined), the IC50 is reported as 980 nM. With COc1ccc(CC(C)NCC(O)c2ccc(Cl)c(Cl)c2)cc1 (centres undefined) the IC50 was 720 nM. Work on Cc1ccc(-c2cc(C(=O)Nc3ccc(S(=O)(=O)N4CCCCC4)cc3)[nH]n2)c(O)c1 yielded an IC50 of 1770 nM. C[C@H](NCCC1CCC(NC(=O)N[C@H](C)C(O)(c2ccccc2)c2ccccc2)CC1)c1cccc2ccccc12 (some centres undefined) gave an IC50 of 1100 nM. O=C(c1cc2c(s1)-c1cccc(Cl)c1SC2)N1CCN(c2ccncc2)CC1 showed an IC50 of 1010 nM. c1ccc(C23N=C(Nc4nc5ccccc5[nH]4)NC2(c2ccccc2)NC(Nc2nc4ccccc4[nH]2)=N3)cc1 (centres undefined) was tested, and the IC50 was 280 nM. CCCC(C(=O)OCCNC)(c1ccccc1)c1ccccc1 showed an IC50 of 890 nM. With CC(C)c1cc(C(=O)N[C@@H](Cc2ccccc2)[C@H](O)CNC2CCCCC2)cc(N2CCCC2=O)c1 the IC50 was 120 nM. With CCCCCC(C)N=C(Nc1ccc(C#N)cc1O)Nc1cccc(Cl)c1Cl (centres undefined) the IC50 was 800 nM. Work on Clc1cc2c(Nc3ccc(Oc4ccccc4)cc3)ccnc2cc1-c1ccc(CNCCN2CCOCC2)o1 yielded an IC50 of 710 nM. Clc1cccc(-c2nc(Nc3ccnc(-c4ccc(CN5CCOCC5)cc4)c3)c3ccccc3n2)c1 showed an IC50 of 710 nM. For CCOC(=O)c1ccc(NC(=O)Nc2cccc(-c3ccc(-c4nc5ccccc5[nH]4)cc3)c2)cc1, the IC50 was 210 nM. Compound COc1ccccc1-c1sccc1C(=O)NC1(c2cc(Cl)cc(Cl)c2)CCCC1 has an IC50 of 940 nM. Work on Cc1ccccc1C1CCN(C2CCC(NC(=O)c3ccc(-c4ccccc4)s3)CC2)CC1 (centres undefined) yielded an IC50 of 660 nM. NCC1CCCN1Cc1cccc(-c2ccc(-c3nc4ccccc4[nH]3)s2)c1 (centres undefined) gave an IC50 of 1040 nM. Work on Cc1ccc(O)cc1Nc1ccnc2cc(-c3csc(CN4CCN(C)CC4)n3)ccc12 yielded an IC50 of 600 nM. Cc1cccc(C)c1N1CCN(C2CCC(NC(=O)c3cc4ccccc4[nH]3)CC2)CC1 (centres undefined) gave an IC50 of 600 nM. In the case of O=C(/C=C/c1ccc(F)cc1)NC1CCC(CCN2CCc3ccccc3CC2)CC1 (centres undefined), the IC50 is reported as 1400 nM. CC(CN(C)C)C(=O)Nc1cccc(-c2ccc(-c3nc4ccccc4[nH]3)cc2)c1 (centres undefined) showed an IC50 of 710 nM. In the case of c1ccc(C(c2ccccc2)N2CCN(C(c3cccnc3)c3nnnn3C3CCCC3)CC2)cc1 (centres undefined), the IC50 is reported as 1080 nM. CC(C)c1ccc(Cn2cc(-c3ccncc3)c3cc(OCc4ccccc4)ccc32)cc1 showed an IC50 of 710 nM. O=C(NC1CCC(N2CCC(c3nc4ccccc4s3)CC2)CC1)c1cc2ccccc2[nH]1 (centres undefined) gave an IC50 of 930 nM. Fc1ccc(CNc2ccc3ncc(-c4cccnc4)n3n2)cc1 showed an IC50 of 930 nM. With O=[N+]([O-])c1ccc(-c2nc3ccc(C4=N[C@H]5CCCC[C@H]5N4)cc3[nH]2)cc1 the IC50 was 690 nM. For CCn1c(C)cc(C=C2SC(=Nc3ccccc3)NC2=O)c1C, the IC50 was 680 nM. Work on Cc1[nH]c2ccccc2c1C1=CCN(CCCCC23CCCc4cccc(c42)NC3=O)CC1 (centres undefined) yielded an IC50 of 230 nM. Work on COc1ccc(-c2ccc3c(-c4ccc(F)cc4)cnc(N)c3c2)cn1 yielded an IC50 of 390 nM. In the case of C=CCOC(=O)N1CCC(CNCc2cccc(-c3cccc(-c4nc5ccccc5[nH]4)c3)c2)C1 (centres undefined), the IC50 is reported as 340 nM. COc1ccc(CCC(C)(C)NCC(O)c2cccc(C(F)(F)F)c2)cc1 (centres undefined) was tested, and the IC50 was 480 nM. Compound O=C(Nc1ccccc1)N(Cc1ccccc1-c1cccc(CNCc2ccc3c(c2)OCO3)c1)C1CCN(Cc2ccccc2)CC1 has an IC50 of 110 nM. CN1CCN(CC(=O)Nc2cccc(-c3ccc(-c4nc5ccc(F)cc5[nH]4)s3)c2)CC1 gave an IC50 of 680 nM. In the case of COc1cccc2cc(C(=O)N[C@@H](CC(C)C)C(=O)N[C@H](/C=N/N3C(=O)CN(Cc4ccccc4)C3=O)CCc3ccccc3)oc12, the IC50 is reported as 620 nM. With Cc1cccc2[nH]c(-c3cccc(-c4ccc(NC(=O)c5cccc(C(N)=O)c5)cc4)c3)nc12 the IC50 was 410 nM. In the case of CC(C)c1sc(N2CCN(C)CC2)nc1C(=O)Nc1cccc2c1CCCC2, the IC50 is reported as 1280 nM. Compound FC(F)(F)c1cccc(C=NNc2nc3ccccc3[nH]2)c1 has an IC50 of 150 nM. For O=C(Nc1ccc(C(=O)Oc2ccc(-c3ccccc3)cc2)cc1)N[C@@H](Cc1ccc(O)cc1)C(=O)NC1CCN(Cc2ccc(O)cc2)C1 (some centres undefined), the IC50 was 800 nM. In the case of NS(=O)(=O)c1ccc(Nc2nccc(-c3c(-c4cccc(NC(=O)c5c(F)cccc5F)c4)nn4ccccc34)n2)cc1, the IC50 is reported as 760 nM. In the case of Cc1[nH]c2c(c(=O)c1Cl)-c1ccc(Oc3cccc(C(F)(F)F)c3)cc1C2=O, the IC50 is reported as 40 nM. COc1ccc(Br)cc1/C=C/C(=O)Nc1ccc(C2CCCN(C)C2)cc1 (centres undefined) showed an IC50 of 630 nM. For Oc1ccc(CCCNc2nc(NCc3ccccc3-c3ccccc3)nc(NC3CCNCC3)n2)cc1, the IC50 was 860 nM. For Clc1ccc2nc(-c3cccnc3)[nH]c2c1, the IC50 was 40 nM. COc1cc2ncnc(NCCc3ccccc3Cl)c2cc1OC showed an IC50 of 1120 nM. Work on Cc1cc(NC(=O)NCCN2CCC(NS(=O)(=O)c3ccccc3Cl)C2)c2ccccc2n1 (centres undefined) yielded an IC50 of 820 nM. CCCCc1ccc(-c2ccc(-c3c(C)[nH]c(C)c(Br)c3=O)cn2)cc1 was tested, and the IC50 was 60 nM. O=c1cc(NCCC(CNCc2ccoc2)NCc2cc(Br)cc(Br)c2)[nH]c2ccccc12 (centres undefined) gave an IC50 of 910 nM. Cc1cc(NN=Cc2cccc(F)c2)c2ccc(F)cc2n1 was tested, and the IC50 was 230 nM.
